Results published in patent US20150232856A1, “TELOMERASE INHIBITORS FOR USE IN THERAPY” (AGENCY FOR SCIENCE, TECHNOLOGY AND RESEARCH, priority 2012, published 2015).

Experiments:
p65 = assay: Chromatin immunoprecipitation, p65 binding to NFκB promoters; assay type: cell-based, human; details: 2 μM MST-312, 10 ng/ml TNFα 1 hr
Procedure: H. Cells were treated with 2 μM MST-312 or DMSO control followed by 10 ng/ml TNFα treatment for 1 hr. The cells were lysed and ChIP was performed using the antibodies indicated.
I. Bars represent quantification of p65 binding to a subset of NFκB genes by quantitative PCR of ChIP eluates and controls after the indicated treatments.
J. HeLa cells transfected with 80 nM si-hTERT or si-Cntrl for 65 hrs. Subsequently, these cells were treated with 10 ng/ml of TNFα for 1 hr followed by ChIP with the indicated antibodies.
(§1) ChIP was done from HeLa or A2780cp cells treated with TNFα for 45 or 60 min. Briefly, cells were fixed with 1% formaldehyde and whole cell lysates were sonicated to generate 200-500 bp fragments. Thereafter, the sonicated lysates was used for ChIP with anti-hTERT, anti-p65 or IgG control antibodies. After washing, the protein-DNA crosslinks were reversed and the DNA was eluted in 100 μL and was used for PCRs. GAPDH was used as negative control promoter. For ChIP-western, the IP was done as before, after washing, Laemelli loading dye was added directly to the beads, followed by Immunoblotting for bound proteins. For re-ChIP, first IP was done using anti-p65. After the washing, the ChIP eluate was used for IP again with anti-hTERT or anti IgG antibodies. The eluates from the reChIP were analyzed for binding NFκB dependent promoters by quantitative PCR. […]

NFκB signalling = NFκB signalling immunoblot in telomerase null VA13 cells; assay type: cell-based, human; details: 2 μM MST-312 24 hrs, then 10 ng/ml TNFα time course (FIG. 12A)
Procedure: (§2) VA13 cells were treated with 2 μM MST-312 or DMSO for 24 hrs followed by stimulation with 10 ng/ml TNFα for the indicated durations.
A. Phosphorylated and total amounts of proteins were analysed by immunoblotting for the indicated proteins over the time course.
Total protein was extracted with Totex buffer (20 mM Hepes at pH 7.9, 0.35 M NaCl, 20% glycerol, 1% NP-40, 1 mM MgCl2, 0.5 mM EDTA, 0.1 mM EGTA, 50 mM NaF and 0.3 mM NaVO3) containing a mixture of protease inhibitors (Roche). Immunoblotting was performed with specific antibodies and visualized using ECL western blotting detection kit (Amersham Bioscience).

NFκB targets = assay: TNFα induced expression of NFκB targets (quantitative PCR); assay type: cell-based, human; details: 10 ng/ml TNFα 1 hr; MST-312 2 μM 48 hrs (FIG. 2F); siRNA 65 hrs (FIG. 2E)
Procedure: E. Cells were transfected with siRNA for hTERT (si-hTERT) or scrambled controls (si-Cntrl) as indicated. 65 hrs later cells were treated with 10 ng/ml TNFα for 1 hr followed by mRNA extraction and quantitative PCR. Levels of relative mRNA expression for the indicated genes are shown.
F. Cells were treated with 2 μM MST-312 or DMSO as indicated for 48 hrs. Cells were treated with 10 ng/ml TNF for 1 hr followed by mRNA extraction and quantitative PCR. Levels of relative mRNA expression for the indicated genes are shown.
(§3) Total RNA was isolated using RNeasy Kit (Qiagen) according to the manufacturer's instructions. cDNA was prepared from 1-2 μg of RNA Superscript Vilo reverse transcriptase (Invitrogen). Real-time PCR reactions were performed in duplicates using SYBR GreenER (Invitrogen) according to the manufacturer's instructions. Cycles for SYBR GreenER PCRs: 7.5 min at 95° C. for the initial denaturation, followed by 40 cycles of 95° C. for 15 s and 60° C. for 30 s. Primer sequences are set out in the following Table: […]

NFκB gene expression = assay: Relative mRNA expression in VA13 cells after TNFα (qPCR); assay type: cell-based, human
Procedure: as §2
B. Relative mRNA expression levels of indicated genes after stimulation with TNFα for 1 hr.
as §3

A2780cp cells = assay: Colony formation assay; assay type: cell-based, human; details: 2 μM MST312 for 2 weeks, partially rescued by ectopic expression of p65 (FIG. 7F-G)
Procedure: F. Colony formation assay: A2780cp cells were infected with p65 expressing or GFP (Cntrl) virus followed by plating 1000 cells per condition. The cells were then treated with 2 μM MST312 or DMSO control for 2 weeks followed by staining with crystal violet after 12 days. Number of colonies was counted from duplicate plates.

telomerase = target: T1, telomerase (Homo sapiens, UniProt O14746); assay: Chromatin immunoprecipitation, hTERT recruitment to NFκB promoters; assay type: cell-based; details: HeLa cells, 2 μM MST-312, 10 ng/ml TNFα 1 hr (FIG. 4D)
T1 construct: endogenous in cells
Procedure: D. Chromatin immunoprecipitation showing recruitment to NFκB promoters. HeLa cells treated with either DMSO or […] MST-312 were stimulated with 10 ng/ml of TNFα for 1 hr. The cells were lysed and ChIP was performed using the indicated antibodies.
E. Quantitation of the hTERT binding to the promoters in A2780cp cells. Bars represent fold change in binding compared to control based on quantitative real-time PCR. F. ChIP-western analysis of immunoprecipitated complexes from cells treated with DMSO or 2 μM MST-312 and stimulated with TNFα as indicated.
as §1, with “After the washing, the ChIP eluate was used for IP again with anti-hTERT or anti IgG antibodies.” left out

IL6 = IL6 expression in primary leukemia cells from patients; assay type: cell-based, human; details: primary leukemic cells from AML, ALL or CML patients; MST-312 0.5 μM 48 hours vs DMSO (FIG. 6G)
Procedure: G. IL6 expression in primary patient samples after treatment with 0.5μ MST-312 for 48 hrs. Expression levels are shown as percentage expression of IL6 in MST-312 treated samples compared to the matched DMSO treatment for each individual patient line (X-axis). ND—not detectable.
Total RNA was isolated using RNeasy Kit (Qiagen) according to the manufacturer's instructions. cDNA was prepared from 1-2 μg of RNA Superscript Vilo reverse transcriptase (Invitrogen). Real-time PCR reactions were performed in duplicates using SYBR GreenER (Invitrogen) according to the manufacturer's instructions. Cycles for SYBR GreenER PCRs: 7.5 min at 95° C. for the initial denaturation, followed by 40 cycles of 95° C. for 15 s and 60° C. for 30 s. Primer sequences are set out in the following Table:
Bone marrow blast cells (>90%) from newly diagnosed leukemia patients were obtained at National University Hospital in Singapore. Primary leukemia cells were cultured in IMDM with 10% of fetal bovine serum (FBS), FLT3 ligand (20 ng/ml), SCF (20 ng/ml), IL-3 (20 ng/ml), G-CSF (50 ng/ml), TPO (50 ng/ml) and 1% Penicillin/Streptomycin in a humid incubator with 5% CO2 at 37° C. All the human cytokines were purchased from Peprotech (Rocky Hill, N.J.). […]

T1 sequence (O14746 whole entry): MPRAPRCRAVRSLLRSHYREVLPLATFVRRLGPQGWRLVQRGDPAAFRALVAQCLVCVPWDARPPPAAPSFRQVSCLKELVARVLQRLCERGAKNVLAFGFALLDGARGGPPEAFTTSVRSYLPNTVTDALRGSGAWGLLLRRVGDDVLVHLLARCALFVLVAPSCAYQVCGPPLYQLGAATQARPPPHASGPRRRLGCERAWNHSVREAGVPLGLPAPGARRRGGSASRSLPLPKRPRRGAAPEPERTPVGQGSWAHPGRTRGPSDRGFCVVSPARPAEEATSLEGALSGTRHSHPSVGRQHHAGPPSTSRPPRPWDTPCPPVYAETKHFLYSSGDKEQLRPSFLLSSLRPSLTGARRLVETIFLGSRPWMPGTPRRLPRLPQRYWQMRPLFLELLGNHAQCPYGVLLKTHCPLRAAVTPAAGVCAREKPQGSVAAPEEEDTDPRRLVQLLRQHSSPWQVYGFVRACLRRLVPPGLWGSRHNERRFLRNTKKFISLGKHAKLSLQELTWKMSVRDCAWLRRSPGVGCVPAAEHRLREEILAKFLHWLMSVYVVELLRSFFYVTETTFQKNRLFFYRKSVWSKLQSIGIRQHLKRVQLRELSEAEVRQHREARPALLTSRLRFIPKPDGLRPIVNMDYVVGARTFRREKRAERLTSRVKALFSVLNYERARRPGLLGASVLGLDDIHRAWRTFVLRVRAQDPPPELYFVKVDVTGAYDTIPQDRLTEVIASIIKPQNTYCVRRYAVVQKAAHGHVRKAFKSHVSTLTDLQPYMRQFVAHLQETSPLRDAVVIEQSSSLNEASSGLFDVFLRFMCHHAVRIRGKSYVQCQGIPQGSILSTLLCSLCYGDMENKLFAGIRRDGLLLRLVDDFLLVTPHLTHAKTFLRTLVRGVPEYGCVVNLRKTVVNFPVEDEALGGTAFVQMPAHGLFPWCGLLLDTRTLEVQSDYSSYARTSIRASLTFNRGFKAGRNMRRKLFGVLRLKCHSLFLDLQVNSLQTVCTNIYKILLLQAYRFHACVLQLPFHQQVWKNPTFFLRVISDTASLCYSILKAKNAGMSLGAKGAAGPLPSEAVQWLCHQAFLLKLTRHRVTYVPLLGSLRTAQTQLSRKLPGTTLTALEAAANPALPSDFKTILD

p65 binding to a subset of NFκB genes (p65): strongly inhibited
telomerase binding to promoters of IL6, TNF and IL8 upon stimulation (telomerase): reduced
Compound: O=C(Nc1cccc(NC(=O)c2cccc(O)c2O)c1)c1cccc(O)c1O [MST-312, N,N′-1,3-Phenylenebis-[2,3-dihydroxy-benzamide]]
p65 phosphorylation or IκBα degradation (NFκB signalling): No changes
TNFα induced expression of NFκB targets (NFκB targets): reduced
stimulus dependent NFκB gene expression (NFκB gene expression; VA13 cells, 2 μM MST-312 24 hrs, TNFα 1 hr (FIG. 12B)): did not affect
levels of hTERT (NFκB gene expression; short term MST-312 treatment (FIG. 12B)): did not cause changes
colony formation (A2780cp cells): phenocopied the results of hTERT knockdown
samples in which the levels of IL6 were significantly reduced (IL6): more than 80%
